One data set has as its system U87MG cells. Description: MTS cell viability assay. The conditions noted are these: 20 μM TGX-221/50 μM TMZ plus αCT1. In kind it is cell-based, human. The procedure:
Cell viability was measured by the MTS assay. P values were determined using the student t test or one-way ANOVA. Error bars represent three independent experiments.
Cell viability was determined using the MTS viability assay. The vehicle DMSO was the control and set as 100%. Treated cells were normalized to DMSO-treated cells. […] (FIG. 43D) Scores of Excess Over Bliss in FIG. 43C calculated using the Bliss Independence model. One-way ANOVA and student t test were used to determine statistical significance.
Cell viability was determined by the MTS cell viability assay (Promega) as described previously 21,24-27. In brief, 250 to 1,000 cells were plated in the wells of a 96-well plate-based upon the cell growth rate. Because the drug treatment usually takes 6-7 days, fast-growing cells could be over-grown if plated at a high cell density. For αCT1 treatment experiments, Applicant intended to plate cells at a low density to minimize the formation of gap junctions, and thus, more Cx43-hemichannels can be present. […] At each hour time point, the absorbance at 490 nm was measured using a FilterMax F3 microplate reader (Molecular Devices, LLC) according to the manufacturer's instructions. Percent cell viability was obtained by dividing the absorbance of treatment groups to those of untreated and respective vehicle control groups.
For orientation: Tetrazolium dyes change colour on reduction, which living cells bring about.

The next data set is described as follows: half-life of αCT1. In kind it is in vitro ADME. The conditions noted are these: cell culture treatment.
A further data set concerns MDA-MB-435S cells. Description: melanoma cell viability (CellTiter Blue). In kind it is cell-based. The conditions noted are these: 50 μM, 6 days, daily repeated dosing. The procedure: (§1) (FIG. 49A) Immunoblotting of p110s and signaling molecules. 3-actin (ACTB) was used as the loading control. (FIG. 49B) Summary of genetic mutations and protein levels in melanoma cells. Information regarding hot spot mutations was retrieved from e.g., DepMap. (FIG. 49C) Cells were treated with 0-40 μM of inhibitors. Cell viability was measured using CellTiter Blue. IC50s were calculated using Graphpad.
(§2) (FIG. 52A) Cells were treated with 10 μM Selectide-18-FITC for 1 h and imaged immediately or after 96h. (FIG. 52B) Selectide-18-FITC in melanoma cells were imaged at different times. FITC was quantified using Image J and FITC intensities at different times were normalized with that at 1 h. Half-life was calculated using GraphPad. (FIG. 52C) UACC-62, MelST, or MeWo cells were treated with 50 μM of Selectide-18 for 4 days with daily repeated dosing. (FIG. 52D) MelST or melanoma cells were treated with 50 μM of Selectide-18 for 6 days with daily repeated dosing. Cell viability was measured using Cell-Titer Blue. (FIG. 52E) MelST, UACC-62, or MeWo cells were treated with Scramble or Selectide-18 at different doses. IC50s were calculated using GraphPad. (FIG. 52F) Nod scid mice bearing UACC-62 subcutaneous tumors were treated with Selectide-18 (3 mg/kg) intratumoral injection/daily) for 16 days. Tumors were measured using a caliper and tumor volumes were calculated as (length×width2))/2. Student t test or ANOVA was used to determine P values. ns: not significant; **: P<0.01; ***P<0.001.

For a further data set, the system named is p110β^hyper cells. Description: melanoma cell viability (CellTiter Blue). In kind it is cell-based. Conditions: 50 μM Selectide-18, 6 days, daily repeated dosing. The procedure:
as §1, §2
A general note: Alamar Blue is a resazurin reagent that responds to reducing activity.

The next data set relates to melanocyte MelST. Type of data set: cell-based. The procedure: (FIG. 49A) Immunoblotting of p110s and signaling molecules. 3-actin (ACTB) was used as the loading control. (FIG. 49B) Summary of genetic mutations and protein levels in melanoma cells. Information regarding hot spot mutations was retrieved from e.g., DepMap. […] Cell viability was measured using CellTiter Blue. IC50s were calculated using Graphpad.
as §2, with “Student t test or ANOVA was used to determine P values. ns: not significant; **: P<0.01; ***P<0.001.” left out

Another data set concerns other melanoma cells. Description: melanoma cell viability (CellTiter Blue). Type of data set: cell-based. The conditions noted are these: 50 μM Selectide-18, 6 days, daily repeated dosing. The procedure: as §2
A further data set relates to PI3K in MeWo cells. Description: PI3K activity after Selectide-18. In kind it is cell-based. Conditions: 50 μM, 4 days, daily repeated dosing. Here is the method:
as §2

The next data set deals with PI3K in MelST cells. Description: PI3K activity after Selectide-18. The conditions noted are these: 50 μM, 4 days, daily repeated dosing. In kind it is cell-based. The procedure:
as §2

Another data set deals with PI3K in UACC-62 cells. Description: PI3K activity after Selectide-18. In kind it is cell-based. The conditions noted are these: 50 μM, 4 days, daily repeated dosing. The procedure:
as §2

A short description of data set [1]: uptake and intracellular half-life of Selectide-18-FITC. Type of data set: cell-based. The conditions noted are these: human, SKMEL-147 melanoma cells (intracellular); FITC intensity normalized to 1 h; read-out: half-life (HL) in cells (converted). The procedure:
as §2

A short description of data set [2]: intracellular half-life of Selectide-18-FITC. Type of data set: cell-based. Conditions: human, UACC-62 melanoma cells (intracellular); FITC intensity normalized to 1 h; read-out: half-life (HL) in cells (converted). Here is the method:
as §2

A further data set deals with UACC-62 xenografts. Description: UACC-62 subcutaneous xenograft. In kind it is in vivo, Nod scid mice. The conditions noted are these: 3 mg/kg, intratumoral injection daily, 16 days. Here is the method: as §2

Where no end group is shown, it is not given here.

A word on the half-life: it is how long it takes for the measured level to halve. For RQPKIWFPNRRKPWKKRPRPDDLEI [αCT1], in the data set on U87MG cells, the “cytotoxic effect of TMZ/TGX-221 double combination upon addition of αCT1” value is on record as “greatly increased the cytotoxic effect”. The sequence also gave a half-life in “half-life of αCT1” of around 48 h.

What is called IC50 is the concentration at which inhibition is half-maximal. Regarding TKKSTKTINPSKYQTIRK [Selectide-18], in the data set with MDA-MB-435S cells, the “sensitivity to Selectide-18” value is “sensitive”. Further, the values for the cell viability result in the data set with p110β^hyper cells and in the data set on other melanoma cells were “suppressed the viability” and “without affecting”, respectively. Besides, the IC50 with melanocyte MelST is around 2000 µM. The values for the PI3K activity entry in the data set with PI3K in MeWo cells, with PI3K in MelST cells and in the data set on PI3K in UACC-62 cells were “not”, “not” and “inactivated PI3K”, respectively. Moreover, the figures for the half-life in data set [1] and in [2] were 138 h and 77 h, respectively. Further, in the data set with UACC-62 xenografts, the “in vivo growth of xenografts” value is on record as “blocked the in vivo growth”.

(Values after patent US20240075093A1, “COMPOSITIONS AND METHODS OF TREATING A PI3K MEDIATED DISEASE” (VIRGINIA TECH INTELLECTUAL PROPERTIES, INC., priority 2020, published 2024).)
